Assay [1] has as its system sensitized rabbit leukocytes. In words: Inhibition of histamine release from sensitized rabbit leukocytes (in vitro). The format is cell-based. The settings on record: for pIC50: Oryctolagus cuniculus, Leukocyte, ragweed-sensitized rabbit leukocytes, ragweed antigen, with S.E.M., read-out: ED50 + S.E.M. (molar concentration required to give 50% inhibition of histamine release); for Relative in vitro Inhibition of Histamine Release: relative to chlorphenesin = 1. The protocol: The procedure published by L. M. Lichtenstein and A. G. Osler, J. EXPTL. MEDICINE, 120:507-530, 1964, for the determination of histamine from human leukocytes, was used to measure histamine release from sensitized rabbit leukocytes. Forty-five ml of blood, drawn by cardiac puncture from ragweed-sensitized rabbits with a plastic syringe containing 250 units of heparin in 5 ml of physiological saline solution, was used. Measurements were made of the total amount of histamine in the leukocytes, the amount of histamine released with the specific antigen (ragweed), the amount of histamine released spontaneously (cell blanks), and the amount of histamine released in the presence of various concratrations of drugs under test.
Appropriate controls for buffer antigen and drugs were included and an internal histamine standard curve was established with each experiment. Inhibition of histamine release was computed from the amount of histamine released by the ragweed antigen in the presence and absence of the drug, i.e., the difference between the quantity of histamine released spontaneously and the amount released by antigen.

For assay [2], the system named is human leukocytes. The settings on record: reported by Lichtenstein and Adkinson, J. Immunology 103:866, 1969; cited from earlier work.
Assay [3] deals with ragweed-sensitized rabbits. Nature of the assay: Inhibition of histamine release after oral administration to ragweed-sensitized rabbits (in vivo). The settings on record: 100 mg/kg oral, rabbit, 50 μg antigen N per ml. The protocol: Five ml of blood was drawn by cardiac puncture from a ragweed-sensitized rabbit to ascertain the basic histamine content of the blood. The amount of histamine released by the addition of 50 μg of antigen N per ml of the assay system was determined. The rabbit was then treated orally with 100 mg/kg of drug using a catheter. One and 5 hr following administration of drug, 5 ml of blood was withdrawn and assayed for histamine by the spectrofluorometric method described by P. A. Shore, A. Burkhalter and V. H. Cohn, Jr., J. PHARMACOL. and EXPTL. THERAP., 127:182, 1959. The percentage inhibition of histamine release was computed from the amount of histamine released before and at 1 and 5 hr following administration of drug.

Molecules are shown by their SMILES. pIC50: −log10 of the molar value.

Consider `OCC(O)COc1ccc(Cl)cc1` (stereo not shown) [chlorphenesin, 3-p-chlorophenoxy-1,2-propanediol, reference compound], for which, in assay [1], the pIC50 is 3.48 and the “Relative in vitro Inhibition of Histamine Release” value (from here on “Relative in vitro Inhibition”) stood at 1. The “inhibition of histamine release from human leukocytes” value in assay [2] is reported as “inhibit histamine release from human leukocytes”.
`COCCCCSc1ccc(Cl)cc1` [Compound 4, 4-(p-Chlorophenylthio)butyl methyl ether]: in assay [1], the pIC50 is 4.55 and the “Relative in vitro Inhibition” value came to 12.
As to `O=C(O)CCCSc1ccc(Cl)cc1` [Compound 1, Sodium 4-(p-Chlorophenylthio)butyrate], the pIC50 in assay [1] is 5.22. Besides, in assay [1], the “Relative in vitro Inhibition” value stood at 55. For the same compound, the entries for the “percentage inhibition of histamine release” value in assay [3] (5 hrs after drug) and in assay [3] (one hour after drug) were 10-15% and 30-40%, respectively.
In the case of `CC(=O)OCCCCSc1ccc(Cl)cc1` [Compound 3, 4-(p-Chlorophenylthio)butyl acetate], in assay [1], the pIC50 was 5.20 and the “Relative in vitro Inhibition” value was found to be 52.
Regarding `O=C(O)CSc1ccc(Cl)cc1` [Compound 2, 2-(p-Chlorophenylthio)acetic acid], in assay [1], the pIC50 was 4.36 and the “Relative in vitro Inhibition” value was 8.

The values are drawn from patent US4124723A, “Method for suppressing histamine release” (Carter-Wallace, Inc., priority 1977, dated 1978).
